Data: US20260294874A1, “COMPOSITIONS COMPRISING MODULATORS OF RIBONUCLEOPROTEIN GRANULE FORMATION AND DISSOLUTION AND METHODS OF USE THEREOF” (University of Virginia Patent Foundation, priority 2023, published 2026)
“Also recorded” adds a separate entry of the source.

Columns and labels:
Type in all cases: cell-based
G3BP1 Y40 = target: T1, G3BP1 Y40 (Homo sapiens, UniProt Q13283); assay: Competitive ABPP SILAC LC-MS/MS chemical proteomics, G3BP1 Y40; conditions: stressed HeLa cells, 25 μM, 2 h
T1 construct: liganded site Y40 in NTF2 domain
Experimental: (§1) Preparation of SILAC proteomes for LC-MS/MS analysis. SILAC cell proteomes were fractionated to collect the supernatant and normalized to 2.3 mg/mL in PBS. ‘Heavy’ and ‘light’ proteomes were aliquoted (427 μL) and probe-modified proteins were conjugated to desthiobiotin-PEG-3-azide using copper-catalyze azide-alkyne cycloaddition, trypsinized into peptides using Trypsin/Lys-C Mix (Catalog No. V5071; Promega Corporation, Madison, Wisconsin, United States of America), enriched using PIERCE™ Avidin Agarose brand beads (Catalog No. 20219; Thermo Fisher Scientific Inc., Waltham, Massachusetts. United States of America), and prepared for nano-electrospray ionization-LC-MS/MS analysis as previously described in Hahm et al., 2020.
(§2) Data Analysis—Chemical Proteomics. Identification and analysis of peptides and proteins using LC-MS was accomplished using bioinformatics software and quality control parameter protocols as previously described in Hahm et al., 2020.
We performed quantitative liquid-chromatography tandem mass spectrometry (LC-MS/MS) chemical proteomic studies to identify the target protein and binding site(s) of SuTEx fragments with RNP granule modulating activity. […] SILAC light and heavy cells (HEK293T and HeLa) were treated with experimental conditions used for phenotypic screening including the SuTEx ligand pretreatment (25 μM, 2 h) followed by PB (glucose-deprivation, 15 min) and SG induction (75 μM [COMPOUND LEFT OUT], 30 min). Afterwards, cells were lysed, soluble proteomes treated with HHS-465 SuTEx probe (100 μM, 1 h), a global Tyr/Lys-reactive probe used previously for RNP granule investigations (Ciancone et al., 2022), and samples processed to probe-modified peptides for LC-MS/MS analysis as previously reported (Huang et al., 2021), shown in FIG. 10.
(§3) We detected ~8,700 probe-modified sites (Tyr and Lys) in our aggregate HeLa and HEK293T chemical proteomic analyses. […]

[1] = test system: G3BP1 Y40E-rescued G3BP KO cells; assay: SG formation in G3BP KO U20S cells rescued with G3BP1 Y40E; conditions: 25 μM, 2 h
Experimental: (§4) G3BP KO and rescue studies. U20S G3BP1/2 double knockout (G3BP KO) cell-line was a kind gift from the C. Brangwynne lab (Princeton University, Princeton, New Jersey, United States of America) and generated as previously described in Kedersha et al., 2016. G3BP KO cells were seeded at 9.0×10^4 in a 24-well plate with 12-mm glass coverslips. Next day, the cells were transfected with […] vectors with 1 μg/mL tetracycline and LIPOFECTAMINE™ 3000 brand transfection reagent according to the manufacturer's protocol (Thermo Fisher Scientific). 20 hours post-transfection, the cells were treated with 25 μM SuTEx probes for 2 hours in DMEM medium without FBS. The cells were then treated with 75 μM NaAsO2 for 30 minutes and fixed with 3% paraformaldehyde in PBS for 15 minutes at RT and washed with PBS twice. The same protocols for IF of HeLa cells and quantification of G3BP1-positive SGs described above were followed thereafter.
(§5) To determine whether the cell biological effects mediated by HHS-166 were Y40-dependent, we expressed recombinant G3BP1 WT or Y40 mutant in previously established G3BP1/2 double knockout U20S (G3BP KO) cells (Kedersha et al., 2016; Sanders et al., 2020) and evaluated the resulting effects on SG response to [COMPOUND LEFT OUT]. […]

[2] = test system: G3BP1 Y40F-expressing G3BP KO cells; assay: SG formation in G3BP KO U20S cells rescued with G3BP1 Y40F; conditions: 25 μM, 2 h
Experimental: as §4, §5

[3] = test system: Tyr and Lys sites of HeLa and HEK293T proteomes; assay: Proteome-wide competitive ABPP SILAC LC-MS/MS chemical proteomics of liganded Tyr/Lys sites; conditions: glucose-deprived HEK293T cells, 25 μM, 2 h
Experimental: as §1, §2
We performed quantitative liquid-chromatography tandem mass spectrometry (LC-MS/MS) chemical proteomic studies to identify the target protein and binding site(s) of SuTEx fragments with RNP granule modulating activity. […]
as §3

T1 sequence (Q13283 whole entry, the tested form may be a part): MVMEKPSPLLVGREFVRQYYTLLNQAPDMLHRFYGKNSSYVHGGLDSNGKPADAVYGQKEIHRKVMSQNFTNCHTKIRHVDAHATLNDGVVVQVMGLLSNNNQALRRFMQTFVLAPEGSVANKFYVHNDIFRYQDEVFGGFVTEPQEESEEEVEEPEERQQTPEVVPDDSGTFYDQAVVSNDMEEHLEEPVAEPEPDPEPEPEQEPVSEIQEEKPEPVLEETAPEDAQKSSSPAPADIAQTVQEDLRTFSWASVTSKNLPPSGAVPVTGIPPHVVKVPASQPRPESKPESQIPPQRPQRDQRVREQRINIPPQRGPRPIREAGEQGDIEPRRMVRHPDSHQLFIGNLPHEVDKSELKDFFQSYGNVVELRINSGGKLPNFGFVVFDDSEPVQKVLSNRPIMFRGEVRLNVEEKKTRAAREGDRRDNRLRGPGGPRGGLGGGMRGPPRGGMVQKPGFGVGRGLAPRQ

| SILAC ratio (SR), G3BP1 Y40 (G3BP1 Y40; HHS-465 100 μM, DMSO (light)/ligand (heavy)) | SMILES | liganding of G3BP1 Y40 (in words) (G3BP1 Y40) | effect on SG formation (in words) [1] | effect on SG formation (in words) [2] | number of reproducibly liganded sites in addition to EDC3 Y475 [3] |
| --- | --- | --- | --- | --- | --- |
|  | N#Cc1ccc(S(=O)(=O)n2cc(-c3cccc(Cl)c3)nn2)cc1 [EKT231, 4-((4-(3-Chlorophenyl)-1H-1,2,3-triazol-1-yl)sulfonyl)benzonitrile] | lack of binding activity |  |  |  |
| > 2 | COc1ccc(S(=O)(=O)n2cc(C3CCCCC3)nn2)cc1 [HHS-166, 4-Cyclohexyl-1-((4-methoxyphenyl)sulfonyl)-111-1,2,3-triazole] | liganded G3BP1 Y40; also recorded: liganded site (Y40) | insensitive to HHS-166 treatment and lost and not Y40E- | lost |  |
|  | COc1ccc(S(=O)(=O)n2cc(CS(C)(=O)=O)nn2)cc1 [AHL-030, 1-((4-Methoxyphenyl)sulfonyl)-4-((methylsulfonyl)methyl)-1H-1,2,3-triazole] |  |  |  | 7 |
